Data set [1] in a line: Metabolic stability in liver microsome (human). The format is in vitro ADME, humans. As to the method:
(§1) Objective: To determine the metabolic stability of test compounds in the liver microsomes of humans, CD-1 5 mice and SD rats (Corning Co., Ltd., Miaotong Biological Technology Co., Ltd., Miaotong Biological Technology Co., Ltd.).
(§2) Procedures: Firstly, eight 96-well plates were prepared, and named T0, T5, T10, T20, T30, T60, NCF60 and BLANK; except for BLANK (added with buffer at 10 μL/well), the plates were added with the solution of compounds at 10 μL/well. Prepared microsomes were added to the 7 plates (80 μL/well), except for the T0 10 plate. The NCF60 plate was added with the buffer at 10 μL/well, and incubated in a 37° C. water bath, and timing was started:
(§3) Prepared NADPH cofactor working solution was aliquoted into a 96-well shallow-well plate serving as a loading slot. Each plates was added with the solution to at 10 μL/well by a 96-channel pipette and incubated in a 37° C. water bath to start the reaction:
(§4) At each time point, termination solution (cold acetonitrile containing 100 ng/mL Tolbutamide and 100 ng/mL Labetalol as internal standard) was added at 300 μL/well to stop the reaction, and the mixture was mixed well; the mixture was centrifuged at 4000 rpm for 20 minutes to precipitate the protein; the supernatant was transferred at 100 μL/well to a new 96-well plate containing 300 μL/well of HPLC water with a 96-channel pipette, and the mixture was mixed well. […]

Data set [2] is described as follows: Metabolic stability in liver microsome (SD rat). The data set is classed as in vitro ADME, SD rats. As to the method: as §1, §2, §3, §4
Background: Liver microsomes are vesicles of endoplasmic reticulum, rich in cytochrome P450 enzymes.

Data set [3] in a line: Metabolic stability in liver microsome (CD-1 mouse). The data set is classed as in vitro ADME, CD-1 mice. The procedure:
as §1, §2, §3, §4

In data set [4] the target is T1, CYP1A2 (Homo sapiens, UniProt P05177).
T1 construct: tissue Corning Co., Ltd; host or cells: human liver microsomes
T1 sequence (P05177 1-516): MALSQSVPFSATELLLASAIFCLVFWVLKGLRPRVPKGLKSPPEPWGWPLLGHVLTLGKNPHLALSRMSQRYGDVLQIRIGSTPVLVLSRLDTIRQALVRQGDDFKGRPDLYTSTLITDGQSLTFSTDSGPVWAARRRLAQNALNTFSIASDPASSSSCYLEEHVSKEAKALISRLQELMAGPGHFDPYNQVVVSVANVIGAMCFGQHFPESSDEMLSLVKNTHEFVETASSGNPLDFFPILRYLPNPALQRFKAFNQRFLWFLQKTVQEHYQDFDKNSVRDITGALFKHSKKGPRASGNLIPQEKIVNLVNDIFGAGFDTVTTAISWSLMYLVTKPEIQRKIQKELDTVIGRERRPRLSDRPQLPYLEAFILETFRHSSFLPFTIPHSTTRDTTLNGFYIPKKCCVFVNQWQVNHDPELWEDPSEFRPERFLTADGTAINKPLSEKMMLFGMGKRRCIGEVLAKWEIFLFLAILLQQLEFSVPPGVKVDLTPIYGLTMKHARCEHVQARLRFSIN
The experiment in a line: Cytochrome P450 isoenzyme inhibition, CYP1A2. The data set is classed as in vitro ADME. Particulars: human liver microsomes; read-out: CYP enzyme inhibition (IC50) 1A2. The source says: (§5) Experimental objective: To determine the inhibitory effect of the test compound on the activity of human liver microsomal cytochrome P450 isoenzymes (CYP1A2, CYP2C9, CYP2C19, CYP2D6 and CYP3A4; Corning Co., Ltd.). […]

Data set [5] deals with T2, CYP2D6 (Homo sapiens, UniProt P10635).
T2 construct: tissue Corning Co., Ltd; host or cells: human liver microsomes
T2 sequence (P10635 whole entry): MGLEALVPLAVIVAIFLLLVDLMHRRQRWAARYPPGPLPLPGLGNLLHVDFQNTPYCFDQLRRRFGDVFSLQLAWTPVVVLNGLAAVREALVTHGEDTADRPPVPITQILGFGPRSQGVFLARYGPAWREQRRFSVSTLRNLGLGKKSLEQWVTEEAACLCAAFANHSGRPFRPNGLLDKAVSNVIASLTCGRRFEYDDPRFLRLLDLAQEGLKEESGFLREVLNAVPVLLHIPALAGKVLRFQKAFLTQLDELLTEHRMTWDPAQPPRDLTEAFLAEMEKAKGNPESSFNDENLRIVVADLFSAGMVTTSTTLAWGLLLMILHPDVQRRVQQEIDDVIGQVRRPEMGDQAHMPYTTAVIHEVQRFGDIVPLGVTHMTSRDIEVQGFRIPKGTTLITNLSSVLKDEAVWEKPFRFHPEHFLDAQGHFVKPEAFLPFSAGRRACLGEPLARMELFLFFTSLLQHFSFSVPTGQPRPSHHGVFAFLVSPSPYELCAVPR
Briefly: Cytochrome P450 isoenzyme inhibition, CYP2D6. The data set is classed as in vitro ADME. Conditions: human liver microsomes; read-out: CYP enzyme inhibition (IC50) 2D6.
Text: as §5

The target in data set [6] is T3, CYP3A4 (Homo sapiens, UniProt P08684).
T3 construct: tissue Corning Co., Ltd; host or cells: human liver microsomes
T3 sequence (P08684 whole entry): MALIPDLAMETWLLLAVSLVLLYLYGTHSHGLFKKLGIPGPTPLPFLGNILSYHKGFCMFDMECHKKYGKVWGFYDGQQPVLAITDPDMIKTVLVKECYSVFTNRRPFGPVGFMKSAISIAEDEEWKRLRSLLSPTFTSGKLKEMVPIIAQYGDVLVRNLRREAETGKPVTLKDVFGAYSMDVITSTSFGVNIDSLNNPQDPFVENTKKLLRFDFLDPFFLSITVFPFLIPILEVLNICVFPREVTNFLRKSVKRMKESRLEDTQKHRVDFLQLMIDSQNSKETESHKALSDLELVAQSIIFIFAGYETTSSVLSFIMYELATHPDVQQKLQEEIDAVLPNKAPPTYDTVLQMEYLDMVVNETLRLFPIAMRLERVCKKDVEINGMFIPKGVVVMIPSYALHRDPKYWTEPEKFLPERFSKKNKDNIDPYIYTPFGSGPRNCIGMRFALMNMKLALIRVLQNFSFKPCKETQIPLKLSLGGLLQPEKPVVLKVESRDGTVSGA
The experiment in a line: Cytochrome P450 isoenzyme inhibition, CYP3A4. The format is in vitro ADME. Particulars: human liver microsomes; read-out: CYP enzyme inhibition (IC50) 3A4.
Text: as §5

Data set [7] relates to P-gp (human MDR1). The experiment in a line: MDR1-MDCK two-way permeability assay. The format is in vitro ADME, canine. Conditions: dog. The source says:
In this study, the MDR1-MDCKII cell line authorized by the Piet Borst Laboratory of the Netherlands Cancer Institute was used as the in vitro model. It is a Madin-Darby canine kidney cell transfected with human multiple drug resistance gene (MDR1). The cells can stably express the efflux transporter P-gp, so it is suitable for screening P-gp substrates or inhibitors and predicting the permeability of the compounds through barriers with high efflux effects in the duodenum, blood-brain barrier, […] and kidney units, etc. This study was intended to use MDR1-MDCK II cells for investigating the two-way permeability of the test compounds through the MDR1-MDCK II cell model.
Procedures: The standard conditions are as follows: • Test concentration: 2 μM (DMSO≤1%); • Replicate: n=2; • Direction: Two-way transport, including two directions: A→B and B→A; • Incubation time: single time point, 2.5 hours; • Transport buffer: HBSS buffer containing 10 mM Hepes, pH 7.4; Incubation condition: 37° C., 5% CO2.
After the incubation, sample solutions at the dosing end and the receiving end were collected and mixed with the cold acetonitrile solution containing the internal standard immediately. LC/MS/MS method was used to analyze the concentration of the test compounds in all samples (including the initial dosing solution, the dosing end samples and the receiving end samples). The apparent permeability coefficient, efflux ratio and other parameters were calculated.

This note sets out measurements from patent US12221432B2, “Estrogen receptor antagonist” (CHIA TAI TIANQING PHARMACEUTICAL GROUP CO., LTD., priority 2018, dated 2025).

By IC50 is commonly meant the concentration at which inhibition is half-maximal. Broadly, the Papp A→B is the apparent permeability from the apical to the basolateral side of a cell layer. The term Papp B→A denotes the apparent permeability from the basolateral to the apical side of a cell layer. As a reminder, the efflux ratio is a quotient of directional permeabilities that is used to spot active efflux.

Counter-ions that a name gives are not always drawn.

Take `CC/C(=C(/c1ccc(OCCNC/C=C/C(=O)N(C)C)nc1)c1[nH]c2ccccc2c1Cl)c1ccccc1` [Compound 3 monohydrochloride]: the entries for the “Stability in liver microsomes” value in data set [1], in data set [2] and in data set [3] were 43, 35 and 43, respectively. Further, the results for the IC50 in data set [4], in data set [5] and in data set [6] were 45.1 µM, 25.6 µM and 9.8 µM, respectively. For the same compound, the Papp A→B at 2.5 h, 2 μM in data set [7] (MDCK-MDR1, A-B, pH 7.4) was 0.44 ×10⁻⁶ cm/s. This compound also showed a Papp B→A at 2.5 h, 2 μM in data set [7] (MDCK-MDR1, B-A, pH 7.4) of 1.93 ×10⁻⁶ cm/s. For the same compound, in data set [7] (MDCK-MDR1, pH 7.4, B-A/A-B), the efflux ratio at 2.5 h, 2 μM came to 4.39.
